Laboratory results reported in the supplement of paper PMC10307832.

What was measured:
Experiment in all cases: relative viability (nuclei count vs DMSO), 5 days (fraction); higher = more cells survive
BAY61-3606 + Trametinib = compound: COC1=C(C=C(C=C1)C2=CC3=NC=CN3C(=N2)NC4=C(C=CC=N4)C(=O)N)OC [BAY61-3606] + CC(=O)Nc1cccc(-n2c(=O)n(C3CC3)c(=O)c3c(Nc4ccc(I)cc4F)n(C)c(=O)c(C)c32)c1 [Trametinib] (partner 0.02 µM)
In short: (§1)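 A single step with final 0.05% Triton X-100, 1% formaldehyde and 1 ug/ml Hoechst fixed the cells and stained nuclei 5 days after treatment. Lung cancer cell lines in 1536-well plates had been treated by pin tool the day after seeding with one drug alone or a fixed anchor-drug dose plus five library-drug doses (not always all listed) in √10 steps, and nuclei were counted on 4× images. Relative viability is the ratio of nuclei in treated wells to nuclei in vehicle wells, taken as the median of duplicate plates.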

BAY61-3606 + Lapatinib = compound: COC1=C(C=C(C=C1)C2=CC3=NC=CN3C(=N2)NC4=C(C=CC=N4)C(=O)N)OC [BAY61-3606] + CS(=O)(=O)CCNCc1ccc(-c2ccc3ncnc(Nc4ccc(OCc5cccc(F)c5)c(Cl)c4)c3c2)o1 [Lapatinib] (partner 2 µM)
In short: as §1

BAY61-3606 + Pictilisib = compound: COC1=C(C=C(C=C1)C2=CC3=NC=CN3C(=N2)NC4=C(C=CC=N4)C(=O)N)OC [BAY61-3606] + CS(=O)(=O)N1CCN(Cc2cc3nc(-c4cccc5[nH]ncc45)nc(N4CCOCC4)c3s2)CC1 [Pictilisib] (partner 1 µM)
In short: as §1

Doxorubicin + Trametinib = compound: COc1cccc2c1C(=O)c1c(O)c3c(c(O)c1C2=O)C[C@@](O)(C(=O)CO)C[C@@H]3O[C@H]1C[C@H](N)[C@H](O)[C@H](C)O1 [Doxorubicin] + CC(=O)Nc1cccc(-n2c(=O)n(C3CC3)c(=O)c3c(Nc4ccc(I)cc4F)n(C)c(=O)c(C)c32)c1 [Trametinib] (partner 0.02 µM)
In short: as §1

Cell Line: UMC-11
- relative viability (BAY61-3606 + Trametinib; first compound 0.02 µM): 0.823
- relative viability (BAY61-3606 + Trametinib; first compound 0.06325 µM): 0.63
- relative viability (BAY61-3606 + Trametinib; first compound 0.2 µM): 0.509
- relative viability (BAY61-3606 + Trametinib; first compound 0.6325 µM): 0.759
- relative viability (BAY61-3606 + Trametinib; first compound 2 µM): 0.688
- relative viability (BAY61-3606 + Lapatinib; first compound 0.02 µM): 1.16
- relative viability (BAY61-3606 + Lapatinib; first compound 0.06325 µM): 0.944
- relative viability (BAY61-3606 + Lapatinib; first compound 0.2 µM): 0.832
- relative viability (BAY61-3606 + Lapatinib; first compound 0.6325 µM): 1.1
- relative viability (BAY61-3606 + Lapatinib; first compound 2 µM): 0.958
- relative viability (BAY61-3606 + Pictilisib; first compound 0.02 µM): 0.851
- relative viability (BAY61-3606 + Pictilisib; first compound 0.06325 µM): 0.799
- relative viability (BAY61-3606 + Pictilisib; first compound 0.2 µM): 0.527
- relative viability (BAY61-3606 + Pictilisib; first compound 0.6325 µM): 0.922
- relative viability (BAY61-3606 + Pictilisib; first compound 2 µM): 0.622
- relative viability (Doxorubicin + Trametinib; first compound 0.001 µM): 0.948
- relative viability (Doxorubicin + Trametinib; first compound 0.003162 µM): 0.761
- relative viability (Doxorubicin + Trametinib; first compound 0.01 µM): 0.768
- relative viability (Doxorubicin + Trametinib; first compound 0.03162 µM): 0.366
- relative viability (Doxorubicin + Trametinib; first compound 0.1 µM): 0.442
